According to US20170165254A1, “TREATING FLAVIVIRUS INFECTIONS WITH AMODIAQUINE AND DERIVATIVES THEREOF” (GEORGETOWN UNIVERSITY, priority 2014, published 2017):
Read-outs that look alike come from different tables or passages of the source.

Legend:
DENV2 replicon = experiment: microbe, parasite or virus in culture; assay type: cell-based, Dengue Virus 2 (DENV2); details: for inhibition at 50 µM: DENV2, BHK-21, read-out: % Replicon Inhibition (Means ± SEM) DENV2
DENV2 = experiment: Inhibition of DENV2 infectivity in BHK-21 cells, plaque assay of supernatants; assay type: cell-based, Dengue Virus 2 (DENV2); details: read-out: EC90 for inhibition of DENV2 infectivity (plaque assay)
Experimental: BHK-21 cells were seeded into 12-well plates (10^5 cells/well) and incubated overnight at 37° C. Cells were infected with DENV2 at a multiplicity of infection (MOI) of 0.01 or 1 as indicated. After infection, cells were washed with PBS and incubated with 1.5 mL of MEM supplemented with 2% FBS, 100 I.U./mL penicillin/100 μg/mL streptomycin (referred to as maintenance medium). AQ, at indicated concentrations, was added and cells were incubated at 37° C. for various time points as indicated. DMSO (1%), as a no-compound control (100% infection), and mock-infected control using medium alone (0% infection) were included. Supernatants were collected from the time point experiments and the virus titers determined by plaque assay.
BHK-21 cells were seeded at ˜10^5 cells/well (12-well plate) or ˜5×10^4 cells/well (24-well plate) and then incubated at 37° C. until reaching 90% confluence. Cells were infected with the supernatants collected from experiments of AQ treatments. Cells were washed with PBS, and incubated with 1.5 mL of overlay medium (maintenance medium containing 1% methylcellulose). The plates were incubated for 3-4 days at 37° C. under 5% CO2. After plaques became visually apparent by microscopy, cells were fixed and stained with 11.1% formaldehyde, 4.75% isopropanol, and 1% crystal violet for 30 minutes. The number of plaque forming units (PFU) per mL was determined.
BHK-21 cells were seeded as described above. AQ, at indicated concentrations in 1% DMSO, was added to DENV2 (MOI of 0.01 or 1)-infected cells during adsorption and/or post-infection. Supernatants were collected at indicated time points post-infection for plaque assays.

WNV replicon = experiment: microbe, parasite or virus in culture; assay type: cell-based, West Nile virus (WNV); details: for inhibition at 50 µM: read-out: % Replicon Inhibition (Means ± SEM) WNV; for EC50: read-out: WNV replicon EC50; for inhibition of WNV replicon replication (in words): FIG. 1B
in vitro [1] = details: hamster
in vitro [2] = details: African green monkey
BHK-21 cells = experiment: Cytotoxicity assay, BHK-21 cells; details: read-out: DENV replicon CC50; Table 2; unit inferred
Vero cells = experiment: Cytotoxicity assay, Vero cells; details: read-out: WNV replicon CC50; Table 2; unit inferred
[3] = 50 μM in 1% DMSO, Vero/WNV replicon cells

Row | Compound | inhibition of DENV2 replicon replication (in words) (DENV2 replicon) | % Replicon Inhibition (Means ± SEM) DENV2 (DENV2 replicon) [%] | EC50 (DENV2 replicon; read-out: DENV replicon EC50) [µM] | % Replicon Inhibition (Means ± SEM) WNV (WNV replicon; [3]) [%] | EC50 (WNV replicon; Table 2, unit inferred) [µM] | also measured
1 | CCN(CC)CCCC(C)Nc1ccnc2cc(Cl)ccc12 (centres unmarked) [chloroquine (CQ), chloroquine] | did not inhibit DENV2 replicon replication |  |  |  |  | inhibition at 50 µM (DENV2 replicon; Dengue virus): 54.8 ± 4.5%; EC90 (DENV2; Dengue virus, DENV2, BHK-21, 72 h): 5.04 ± 0.72 µM; inhibition at 50 µM (WNV replicon; West Nile virus, Vero): 18.5 ± 2.8%
2 | CCN(CC)Cc1cc(Nc2c(C3CCCC3)c(C)nc3cc(Cl)ccc23)ccc1O [AQ derivative 4] | strong inhibition | 99.99 ± 0.0 | 15.4 ± 1.31 | 99.8 ± 0.01 | 3.31 ± 0.73 | inhibition of WNV replicon replication (in words) (WNV replicon; Vero/WNV replicon cells): strong inhibition
3 | CC(CCc1ccc(N(CCCl)CCCl)cc1)Nc1ccnc2cc(Cl)ccc12 (centres unmarked) [chloroquine ethyl phenyl mustard] |  | 99.8 ± 0.03 |  |  |  | CC50 (in vitro [1]): 74.1 ± 21.5 µM; inhibition at 50 µM (DENV2 replicon; Dengue virus): > 99%; EC50 (DENV2 replicon; Dengue virus, DENV2, BHK-21, read-out: DENV replicon EC50): 3.6 ± 0.83 µM; CC50 (in vitro [2]): 5.02 ± 1.23 µM; % Replicon Inhibition (Means ± SEM) WNV (WNV replicon): 99.5 ± 0.05%; inhibition at 50 µM (WNV replicon; West Nile virus, Vero): > 99%; EC50 (WNV replicon; West Nile virus, Vero): 1.55 ± 0.4 µM
4 | chloroquine sulfate |  | 28.1 ± 3.6 |  |  |  | % Replicon Inhibition (Means ± SEM) WNV (WNV replicon): — (key: —: “-” refers to no inhibition)
5 | Oc1ccc(Nc2ccnc3cc(Cl)ccc23)cc1 [AQ derivative 8] | failed to inhibit replicon replication | 3.9 ± 0.3 | > 100 | 57.2 ± 5.1 | > 100 | CC50 (BHK-21 cells): > 100 µM; EC50 (DENV2 replicon; read-out: EC50 values, BHK-21/DENV2 replicon cells): ~100 µM; EC90 (DENV2; MOI of 1, supernatants at 72 hours, BHK-21 cells): 31.2 ± 5.15 µM; CC50 (Vero cells): > 100 µM
6 | C=CN(C)Cc1cc(Nc2ccnc3cc(Cl)ccc23)ccc1O [AQ derivative 6] | strong inhibition | 98.5 ± 1.3 | 12.5 ± 2.19 | 99.5 ± 0.1 | 6.29 ± 0.52 | CC50 (BHK-21 cells): 16.4 ± 0.46 µM; CC50 (Vero cells): 18.2 ± 1.05 µM; inhibition of WNV replicon replication (in words) (WNV replicon; Vero/WNV replicon cells): strong inhibition
7 | CC[N+](C)(CC)Cc1cc(Nc2ccnc3cc(Cl)ccc23)ccc1O [AQ derivative 2] |  | 69.9 ± 3.4 | 29.7 ± 2.26 | 50.6 ± 4.4 | 30.2 ± 6.05 | 
